Patent US4211772A, “Benzopyran glycoside acetals and ketals” (Laboratoires Sarget, priority 1977, dated 1980)
Converted amounts (≈) assume the structure as drawn. Read-outs that look alike come from different tables or passages of the source.

How the values were obtained:
Solubilities in water = assay type: physicochemical; conditions: water; read-out: Solubilities in water
carragenin edema = test: Anti-inflammatory activity: carragenin edema test; assay type: in vivo; conditions: for % inhibition of carragenin edema: borate buffer pH 7, 24 h; for inhibition in vivo at 100 mg/kg / inhibition in vivo at 200 mg/kg / inhibition in vivo at 300 mg/kg / inhibition in vivo at 75 mg/kg / inhibition in vivo at 150 mg/kg: Rattus norvegicus, ip
Method in brief: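 Male Wistar EOPS rats receive 0.1 ml of 5% carragenin suspension in physiological serum into the hind-paw metatarsal muscle, with test substance given i.p. in neutralized solution at the same time. Paw edema is measured by plethysmometry at several times after carragenin and reported as % inhibition against pH-matched physiological serum controls.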

Aldose Reductase = biological target: T1, Aldose Reductase (Bos taurus, UniProt P16116); test: Inhibition of aldose reductase in vitro (enzyme from beef eye lenses, glyceraldehyde substrate); assay type: biochemical; conditions: in DMF solution, read-out: percentages of inhibition (aldose reductase)
T1 construct: The enzyme is extracted from beef eye lenses; from tissue; host or cells: beef eye lenses
Source text: Inhibition of Aldose Reductase In Vitro
The reoxidation of NADPH coupled to the enzymatic reaction was followed spectrophotometrically at 340 nm.

capillary resistance = test: Capillaroprotecting effects: capillary resistance; assay type: in vivo, male OFA EOPS rats
Method: (§1) Capillaroprotecting effects
The capillary resistance was determined by a variant of the method of Charlier et al, Arch. Inter. Physiol.

Wistar EOPS rat = test: Minimum lethal dose by slow i.v. perfusion in the rat; assay type: in vivo
Method: The minimum lethal dose of compound No. 1 administered by slow i.v. perfusion in the Wistar EOPS rat is in the neighborhood of 15 mg/kg/min. for 30 min.

galactosemic cataract = test: Galactosemic cataract in rats; assay type: in vivo, weaning male EOPS Wistar rats; conditions: 100 mg/kg/d i.p.
Method: GALACTOSEMIC CATARACT IN RATS
The study was conducted using weaning male EOPS Wistar rats having an initial weight of between 45 and 50 g. The animals were fed a high vitamin and high protein regimen containing 20% by weight of galactose. The first signs of cataracts, detected by the ophthalmoscope, appeared beginning with the third day. The animals received daily i.p. doses of the test compound, the treatment being started four days after the commencement of the galactosemic regimen. The evolution of the cataract was followed by the detection of maroon rings visible in the ophthalmoscope. These rings appeared on the external edge of the lens and progressed little by little to its center. Anatomopathological studies of the lenses confirmed that these brown rings correspond well to the characteristic histological lesions of galactosemic cataracts. Photographs taken with the aid of a retinograph facilitated the comparison of the evolution of the lesions.
Statistical calculations according to the .chi.^2 method permit an evaluation of the significance of the results obtained for each of the treatments compared to those for non-treated animals.

capillary permeability = test: Capillaroprotecting effects: capillary permeability; assay type: in vivo, conventional male Wistar rats
Method: as §1
The capillary permeability was determined by the method of Charlier et al, Arch. Inter. Physiol.

## C[C@@H]1O[C@@H](OC[C@H]2O[C@@H](Oc3c(-c4ccc(O)c(O)c4)oc4cc(O)cc(O)c4c3=O)[C@H](O)[C@@H](O)[C@@H]2O)[C@@H]2OC(C)(C)O[C@@H]2[C@H]1O [No. 1, 3-O-(2,3-O,O-isopropylidene-6-α-L-rhamnosyl-β-D-glucosyl)-quercetin]
Solubilities in water
  solubility: 7000 µg/mL (≈ 10.8 mM)
Carragenin edema; 75 mg/kg i.p.
  % inhibition of carragenin edema: 5%
Carragenin edema; 150 mg/kg i.p.
  % inhibition of carragenin edema: 21%
Carragenin edema; 200 mg/kg i.p.
  % inhibition of carragenin edema: 0%
Carragenin edema; 100 mg/kg i.p., physiological serum, 1/2 h, read-out: % inhibition of carragenin edema
  inhibition in vivo at 100 mg/kg: 33%
Carragenin edema; 200 mg/kg i.p., physiological serum, 1/2 h, read-out: % inhibition of carragenin edema
  inhibition in vivo at 200 mg/kg: 0%
Carragenin edema; 300 mg/kg i.p., physiological serum, 1/2 h, read-out: % inhibition of carragenin edema
  inhibition in vivo at 300 mg/kg: 30%
Carragenin edema; 1 h, pH 7, read-out: % inhibition of carragenin edema, 75 mg/kg i.p., borate buffer pH 7, 1 h
  inhibition in vivo at 75 mg/kg: 18%
Carragenin edema; 1 h, pH 7, read-out: % inhibition of carragenin edema, 75 mg/kg i.p., borate buffer pH 7, 1 h 1/2
  inhibition in vivo at 75 mg/kg: 29%
Carragenin edema; 1 h, pH 7, read-out: % inhibition of carragenin edema, 150 mg/kg i.p., borate buffer pH 7, 1 h
  inhibition in vivo at 150 mg/kg: 25%
Carragenin edema; 1 h, pH 7, read-out: % inhibition of carragenin edema, 150 mg/kg i.p., borate buffer pH 7, 1 h 1/2
  inhibition in vivo at 150 mg/kg: 40%
Carragenin edema; 1 h, pH 7, read-out: % inhibition of carragenin edema, 200 mg/kg i.p., borate buffer pH 7, 1 h
  inhibition in vivo at 200 mg/kg: 16%
Carragenin edema; 1 h, pH 7, read-out: % inhibition of carragenin edema, 200 mg/kg i.p., borate buffer pH 7, 1 h 1/2
  inhibition in vivo at 200 mg/kg: 37%
Carragenin edema; 1 h, read-out: % inhibition of carragenin edema, 100 mg/kg i.p., physiological serum, 1 h
  inhibition in vivo at 100 mg/kg: 24%
Carragenin edema; 1 h, read-out: % inhibition of carragenin edema, 200 mg/kg i.p., physiological serum, 1 h
  inhibition in vivo at 200 mg/kg: 0%
Carragenin edema; 1 h, read-out: % inhibition of carragenin edema, 300 mg/kg i.p., physiological serum, 1 h
  inhibition in vivo at 300 mg/kg: 37%
Carragenin edema; 2 h, pH 7, read-out: % inhibition of carragenin edema, 75 mg/kg i.p., borate buffer pH 7, 2 h
  inhibition in vivo at 75 mg/kg: 23%
Carragenin edema; 2 h, pH 7, read-out: % inhibition of carragenin edema, 150 mg/kg i.p., borate buffer pH 7, 2 h
  inhibition in vivo at 150 mg/kg: 34%
Carragenin edema; 2 h, pH 7, read-out: % inhibition of carragenin edema, 200 mg/kg i.p., borate buffer pH 7, 2 h
  inhibition in vivo at 200 mg/kg: 38%
Carragenin edema; 2 h, read-out: % inhibition of carragenin edema, 100 mg/kg i.p., physiological serum, 2 h
  inhibition in vivo at 100 mg/kg: 5%
Carragenin edema; 2 h, read-out: % inhibition of carragenin edema, 200 mg/kg i.p., physiological serum, 2 h
  inhibition in vivo at 200 mg/kg: 8%
Carragenin edema; 2 h, read-out: % inhibition of carragenin edema, 300 mg/kg i.p., physiological serum, 2 h
  inhibition in vivo at 300 mg/kg: 8%
Carragenin edema; 3 h, pH 7, read-out: % inhibition of carragenin edema, 75 mg/kg i.p., borate buffer pH 7, 3 h
  inhibition in vivo at 75 mg/kg: 20%
Carragenin edema; 3 h, pH 7, read-out: % inhibition of carragenin edema, 150 mg/kg i.p., borate buffer pH 7, 3 h
  inhibition in vivo at 150 mg/kg: 26%
Carragenin edema; 3 h, pH 7, read-out: % inhibition of carragenin edema, 200 mg/kg i.p., borate buffer pH 7, 3 h
  inhibition in vivo at 200 mg/kg: 30%
Carragenin edema; 3 h, read-out: % inhibition of carragenin edema, 100 mg/kg i.p., physiological serum, 3 h
  inhibition in vivo at 100 mg/kg: 7%
Carragenin edema; 3 h, read-out: % inhibition of carragenin edema, 200 mg/kg i.p., physiological serum, 3 h
  inhibition in vivo at 200 mg/kg: 8%
Carragenin edema; 3 h, read-out: % inhibition of carragenin edema, 300 mg/kg i.p., physiological serum, 3 h
  inhibition in vivo at 300 mg/kg: 16%
Carragenin edema; 4 h, pH 7, read-out: % inhibition of carragenin edema, 75 mg/kg i.p., borate buffer pH 7, 4 h
  inhibition in vivo at 75 mg/kg: 14%
Carragenin edema; 4 h, pH 7, read-out: % inhibition of carragenin edema, 150 mg/kg i.p., borate buffer pH 7, 4 h
  inhibition in vivo at 150 mg/kg: 19%
Carragenin edema; 4 h, pH 7, read-out: % inhibition of carragenin edema, 200 mg/kg i.p., borate buffer pH 7, 4 h
  inhibition in vivo at 200 mg/kg: 21%
Carragenin edema; 4 h, read-out: % inhibition of carragenin edema, 100 mg/kg i.p., physiological serum, 4 h
  inhibition in vivo at 100 mg/kg: 16%
Carragenin edema; 4 h, read-out: % inhibition of carragenin edema, 200 mg/kg i.p., physiological serum, 4 h
  inhibition in vivo at 200 mg/kg: 12%
Carragenin edema; 4 h, read-out: % inhibition of carragenin edema, 300 mg/kg i.p., physiological serum, 4 h
  inhibition in vivo at 300 mg/kg: 27%
Carragenin edema; 5 h, pH 7, read-out: % inhibition of carragenin edema, 75 mg/kg i.p., borate buffer pH 7, 5 h
  inhibition in vivo at 75 mg/kg: 25%
Carragenin edema; 5 h, pH 7, read-out: % inhibition of carragenin edema, 150 mg/kg i.p., borate buffer pH 7, 5 h
  inhibition in vivo at 150 mg/kg: 27%
Carragenin edema; 5 h, pH 7, read-out: % inhibition of carragenin edema, 200 mg/kg i.p., borate buffer pH 7, 5 h
  inhibition in vivo at 200 mg/kg: 30%
Carragenin edema; 5 h, read-out: % inhibition of carragenin edema, 100 mg/kg i.p., physiological serum, 5 h
  inhibition in vivo at 100 mg/kg: 20%
Carragenin edema; 5 h, read-out: % inhibition of carragenin edema, 200 mg/kg i.p., physiological serum, 5 h
  inhibition in vivo at 200 mg/kg: 15%
Carragenin edema; 5 h, read-out: % inhibition of carragenin edema, 300 mg/kg i.p., physiological serum, 5 h
  inhibition in vivo at 300 mg/kg: 30%
Carragenin edema; 6 h, pH 7, read-out: % inhibition of carragenin edema, 75 mg/kg i.p., borate buffer pH 7, 6 h
  inhibition in vivo at 75 mg/kg: 17%
Carragenin edema; 6 h, pH 7, read-out: % inhibition of carragenin edema, 150 mg/kg i.p., borate buffer pH 7, 6 h
  inhibition in vivo at 150 mg/kg: 28%
Carragenin edema; 6 h, pH 7, read-out: % inhibition of carragenin edema, 200 mg/kg i.p., borate buffer pH 7, 6 h
  inhibition in vivo at 200 mg/kg: 18%
Carragenin edema; 6 h, read-out: % inhibition of carragenin edema, 100 mg/kg i.p., physiological serum, 6 h
  inhibition in vivo at 100 mg/kg: 7%
Carragenin edema; 6 h, read-out: % inhibition of carragenin edema, 200 mg/kg i.p., physiological serum, 6 h
  inhibition in vivo at 200 mg/kg: 9%
Carragenin edema; 6 h, read-out: % inhibition of carragenin edema, 300 mg/kg i.p., physiological serum, 6 h
  inhibition in vivo at 300 mg/kg: 27%
Carragenin edema; read-out: % inhibition of carragenin edema, 75 mg/kg i.p., borate buffer pH 7, 1/2 h
  inhibition in vivo at 75 mg/kg: 18%
Carragenin edema; read-out: % inhibition of carragenin edema, 150 mg/kg i.p., borate buffer pH 7, 1/2 h
  inhibition in vivo at 150 mg/kg: 15%
Carragenin edema; read-out: % inhibition of carragenin edema, 200 mg/kg i.p., borate buffer pH 7, 1/2 h
  inhibition in vivo at 200 mg/kg: 9%
Aldose Reductase; 10^-4 mole/l
  inhibition at 100 µM: 82%
Aldose Reductase; 10^-5 mole/l
  inhibition at 10 µM: 32%
Capillary resistance; 100 mg/kg i.p.
  % of animals for which the effect is ≥ 25 u cm Hg/h: 50%
  capillary resistance, effect observed: 21.5 ± 4.6 u cm Hg/h
Capillary resistance; 200 mg/kg i.p.
  % of animals for which the effect is ≥ 25 u cm Hg/h: 90%
  capillary resistance, effect observed: 41.25 ± 15.3 u cm Hg/h
Wistar EOPS rat
  arterial pressure and cardiac frequency, time of maximum: attain their maximum values at the twelfth minute of the perfusion
  cause of death: death occurs by respiratory arrest
  hemodynamic effects: brief, low intensity hypotension is observed accompanied by bradycardia
Wistar EOPS rat; for 30 min
  minimum lethal dose: ~15 mg/kg/min
Galactosemic cataract; day 0
  percentage of animals which have not yet shown the appearance of cataracts: 100%
Galactosemic cataract; day 1
  percentage of animals which have not yet shown the appearance of cataracts: 100%
Galactosemic cataract; day 2
  percentage of animals which have not yet shown the appearance of cataracts: 87.5%
Galactosemic cataract; day 3
  percentage of animals which have not yet shown the appearance of cataracts: 81%
Galactosemic cataract; day 4
  percentage of animals which have not yet shown the appearance of cataracts: 50%
  significance compared to non-treated animals (chi^2): S
Galactosemic cataract; day 5
  percentage of animals which have not yet shown the appearance of cataracts: 37.5%
  significance compared to non-treated animals (chi^2): S
Galactosemic cataract; day 6
  percentage of animals which have not yet shown the appearance of cataracts: 37.5%
  significance compared to non-treated animals (chi^2): S
Galactosemic cataract; day 10
  percentage of animals which have not yet shown the appearance of cataracts: 37.5%
  significance compared to non-treated animals (chi^2): S
Galactosemic cataract; day 12
  percentage of animals which have not yet shown the appearance of cataracts: 28%
  significance compared to non-treated animals (chi^2): S
Galactosemic cataract; day 16
  percentage of animals which have not yet shown the appearance of cataracts: 19%
  significance compared to non-treated animals (chi^2): S
Galactosemic cataract; day -4
  percentage of animals which have not yet shown the appearance of cataracts: 100%
Capillary permeability; 400 mg/kg i.p.
  percentage reduction of capillary permeability: 30%
Capillary permeability; 800 mg/kg i.p.
  percentage reduction of capillary permeability: 37%
